This note sets out measurements from BindingDB's records for doi:10.1016/0960-894X(96)00290-9 (1996).

Molecules are shown by their SMILES.

A short description of the experiment: Inhibition of pancreatic cholesterol esterase using p-nitrophenylacetate or cholesteryl [1-14C]-oleate as substrates.

`CC(C)(C)[C@H]1CC[C@H](CC(=O)C(F)(F)C(F)(F)F)CC1` [1-(4-tert-Butyl-cyclohexyl)-3,3,4,4,4-pentafluoro-butan-2-one] yielded an IC50 of 10 µM.

Compound `CCCCCCCCCCCCC(F)(F)C(=O)C[C@H]1CC[C@]2(C)CCCC[C@H]2C1` [3,3-Difluoro-1-((2S,4aS,8aS)-4a-methyl-decahydro-naphthalen-2-yl)-pentadecan-2-one] yielded a half-maximal inhibitory concentration (IC50) of over 100 µM.
